Reference: patent publication US10160747B2, “Compounds and methods for kinase modulation, and indications therefor” (Plexxikon Inc., priority 2016, dated 2018)

Key:
[1] = system: MOLM-14 D835Y (endogenous FLT3 ITD and transfected FLT3 D835Y); assay: MOLM-14 D835Y cell proliferation assay (CellTiter-Glo); assay type: cell-based; details: Homo sapiens, MOLM-14, 72 h; 3 d growth, GMean
In short: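 MOLM-14 derivatives carrying D835Y or F691L, selected under escalating AC220, were seeded at 1×10^4 cells/well and exposed to an 8-point 1:3 compound series (1 to 0.00046 μM, 0.2% DMSO final) for three days at 37° C., 5% CO2. CellTiter-Glo luminescence (ATP content) versus concentration gave IC50.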

BA/F3-FLT3-ITD + D835Y = target: T1, BA/F3-FLT3-ITD + D835Y (Homo sapiens, UniProt P36888, D835Y, cells depend on it, form not given); assay: Engineered BA/F3 cell growth assay, FLT3 ITD/D835Y; assay type: cell-based, murine; details: 3 d growth
T1 sequence (P36888 with tags, fused parts or gaps INS600HVDFREYEYD/D835Y): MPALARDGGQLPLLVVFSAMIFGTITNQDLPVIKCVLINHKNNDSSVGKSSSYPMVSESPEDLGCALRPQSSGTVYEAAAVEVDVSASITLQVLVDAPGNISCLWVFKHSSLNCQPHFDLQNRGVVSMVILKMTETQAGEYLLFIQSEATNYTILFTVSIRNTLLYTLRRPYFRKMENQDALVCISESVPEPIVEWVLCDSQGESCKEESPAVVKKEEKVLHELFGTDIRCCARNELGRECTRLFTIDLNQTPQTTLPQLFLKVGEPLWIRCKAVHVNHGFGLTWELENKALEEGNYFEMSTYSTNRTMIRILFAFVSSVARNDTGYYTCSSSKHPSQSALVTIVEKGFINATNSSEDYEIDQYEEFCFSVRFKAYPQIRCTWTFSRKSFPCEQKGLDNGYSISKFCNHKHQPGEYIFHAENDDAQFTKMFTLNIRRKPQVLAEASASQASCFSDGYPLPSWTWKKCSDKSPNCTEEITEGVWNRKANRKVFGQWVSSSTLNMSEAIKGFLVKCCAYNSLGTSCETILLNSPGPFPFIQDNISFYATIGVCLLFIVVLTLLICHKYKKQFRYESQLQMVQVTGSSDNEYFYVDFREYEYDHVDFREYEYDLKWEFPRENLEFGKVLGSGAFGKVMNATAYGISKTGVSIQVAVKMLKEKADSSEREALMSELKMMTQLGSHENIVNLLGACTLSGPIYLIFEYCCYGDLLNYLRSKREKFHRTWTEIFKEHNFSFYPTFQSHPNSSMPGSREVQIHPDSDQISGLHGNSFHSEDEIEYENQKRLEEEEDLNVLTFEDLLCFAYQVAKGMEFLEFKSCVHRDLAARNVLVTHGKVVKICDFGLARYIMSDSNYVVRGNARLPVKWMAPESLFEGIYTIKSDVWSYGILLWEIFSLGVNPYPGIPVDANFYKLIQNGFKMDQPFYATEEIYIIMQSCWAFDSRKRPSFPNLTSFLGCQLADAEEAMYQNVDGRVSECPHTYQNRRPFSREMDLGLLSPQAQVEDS
In short: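 Murine Ba/F3 cells transfected with full-length FLT3 ITD/D835Y, grown without IL-3 so growth depends on FLT3. Seeded at 1×10^4 cells/well, 8-point 1:3 series to 1 μM top (0.2% DMSO), 3 days at 37 °C. CellTiter-Glo luminescence (ATP) versus concentration gave IC50.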

| SMILES | IC50 [1] | GI50 (BA/F3-FLT3-ITD + D835Y) |
| --- | --- | --- |
| COc1ncc(NC(=O)Cc2cc(F)c(-c3cnc(Nc4cnn(C)c4)nc3)cc2F)cc1C(F)(F)F [Compound P-0208, 2-[2,5-difluoro-4-[2-[(1-methylpyrazol-4-yl)amino]pyrimidin-5-yl]phenyl]-N-[6-methoxy-5-(trifluoromethyl)-3-pyridyl]acetamide] | 0.0001 to 10 µM | 0.0001 to 10 µM |
| COc1ncc(NC(=O)Cc2ccc(-c3cnc4[nH]c(-c5ccnc(C#N)c5)cc4c3)cc2F)cc1C(F)(F)F [Compound P-0013, 2-[4-[2-(2-cyano-4-pyridyl)-1H-pyrrolo[2,3-b]pyridin-5-yl]-2-fluoro-phenyl]-N-[6-methoxy-5-(trifluoromethyl)-3-pyridyl]acetamide] | 0.0001 to 10 µM | 0.0001 to 10 µM |
| Cn1cnc(Nc2ncc(-c3cc(F)c(CC(=O)Nc4cc(C(F)(F)F)ccn4)cc3F)cn2)c1 [Compound P-0020, 2-[2,5-difluoro-4-[2-[(1-methylimidazol-4-yl)amino]pyrimidin-5-yl]phenyl]-N-[4-(trifluoromethyl)-2-pyridyl]acetamide] | 0.0001 to 10 µM | 0.0001 to 10 µM |
| COc1ncc(NC(=O)Cc2ccc(-c3cnc4[nH]c(C#CC(C)(C)C)cc4c3)cc2)cc1C(F)(F)F [Compound P-0219, 2-[4-[2-(3,3-dimethylbut-1-ynyl)-1H-pyrrolo[2,3-b]pyridin-5-yl]phenyl]-N-[6-methoxy-5-(trifluoromethyl)-3-pyridyl]acetamide] | 0.0001 to 10 µM | 0.0001 to 10 µM |
| COc1ncc(NC(=O)Cc2ccc(-c3cnc4[nH]c(C#CC(C)(C)O)cc4c3)cc2)cc1C(F)(F)F [Compound P-0214, 2-(4-(2-(3-hydroxy-3-methylbut-1-yn-1-yl)-1H-pyrrolo[2,3-b]pyridin-5-yl)phenyl)-N-(6-methoxy-5-(trifluoromethyl)pyridin-3-yl)acetamide] | 0.0001 to 10 µM | 0.0001 to 10 µM |
| COc1ncc(NC(=O)Cc2ccc(-c3cnc4[nH]c(-c5ccnc(C#N)c5)cc4c3)c(F)c2)cc1C(F)(F)F [Compound P-0016, 2-[4-[2-(2-cyano-4-pyridyl)-1H-pyrrolo[2,3-b]pyridin-5-yl]-3-fluoro-phenyl]-N-[6-methoxy-5-(trifluoromethyl)-3-pyridyl]acetamide] | 0.0001 to 10 µM | 0.0001 to 10 µM |
| COc1ncc(NC(=O)Cc2ccc(-c3cnc4[nH]nc(OC)c4c3)cc2)cc1C(F)(F)F [Compound P-0212, 2-[4-(3-methoxy-1H-pyrazolo[3,4-b]pyridin-5-yl)phenyl]-N-[6-methoxy-5-(trifluoromethyl)-3-pyridyl]acetamide] | 0.0001 to 10 µM | 0.0001 to 10 µM |
| Cn1cc(Nc2ncc(-c3ccc(CC(=O)Nc4cncc(C(F)(F)F)c4)cc3F)cn2)cn1 [Compound P-0205, 2-[3-fluoro-4-[2-[(1-methylpyrazol-4-yl)amino]pyrimidin-5-yl]phenyl]-N-[5-(trifluoromethyl)-3-pyridyl]acetamide] | 0.0001 to 10 µM | 0.0001 to 10 µM |
| COc1ncc(NC(=O)Cc2ccc(-c3cnc4[nH]c(-c5cnn(C(F)F)c5)cc4c3)cc2F)cc1C(F)(F)F [Compound P-0015, 2-[4-[2-[1-(difluoromethyl)pyrazol-4-yl]-1H-pyrrolo[2,3-b]pyridin-5-yl]-2-fluoro-phenyl]-N-[6-methoxy-5-(trifluoromethyl)-3-pyridyl]acetamide] | 0.0001 to 10 µM | 0.0001 to 10 µM |
| COc1cc(-c2cc3cc(-c4ccc(CC(=O)Nc5cncc(C(F)(F)F)c5)cc4F)cnc3[nH]2)ccn1 [Compound P-0200, 2-(3-fluoro-4-(2-(2-methoxypyridin-4-yl)-1H-pyrrolo[2,3-b]pyridin-5-yl)phenyl)-N-(5-(trifluoromethyl)pyridin-3-yl)acetamide] | 0.0001 to 10 µM | 0.0001 to 10 µM |
| CCOc1n[nH]c2ncc(-c3ccc(CC(=O)Nc4cnc(OC)c(C(F)(F)F)c4)cc3F)cc12 [Compound P-0202, 2-[4-(3-ethoxy-1H-pyrazolo[3,4-b]pyridin-5-yl)-3-fluoro-phenyl]-N-[6-methoxy-5-(trifluoromethyl)-3-pyridyl]acetamide] | 0.0001 to 10 µM | 0.0001 to 10 µM |

Second part, the molecule after the results:

| IC50 [1] | GI50 (BA/F3-FLT3-ITD + D835Y) | SMILES |
| --- | --- | --- |
| 0.0001 to 10 µM | 0.0001 to 10 µM | CCn1cc(Nc2ncc(-c3ccc(CC(=O)Nc4ccc(C(F)(F)F)nc4)c(F)c3)cn2)cn1 [Compound P-0257, 2-[4-[2-[(1-ethylpyrazol-4-yl)amino]pyrimidin-5-yl]-2-fluoro-phenyl]-N-[6-(trifluoromethyl)-3-pyridyl]acetamide] |
| 0.0001 to 10 µM | 0.0001 to 10 µM | COCCn1cc(Nc2ncc(-c3ccc(CC(=O)Nc4ccc(C(F)(F)F)cn4)cc3)cn2)cn1 [Compound P-0274, 2-[4-[2-[[1-(2-methoxyethyl)pyrazol-4-yl]amino]pyrimidin-5-yl]phenyl]-N-[5-(trifluoromethyl)-2-pyridyl]acetamide] |
| 0.0001 to 10 µM | 0.0001 to 10 µM | CCn1cc(Nc2ncc(-c3cc(F)c(CC(=O)Nc4cnc(OC)c(C(F)(F)F)c4)cc3F)cn2)cn1 [Compound P-0247, 2-[4-[2-[(1-ethylpyrazol-4-yl)amino]pyrimidin-5-yl]-2,5-difluoro-phenyl]-N-[6-methoxy-5-(trifluoromethyl)-3-pyridyl]acetamide] |
| 0.0001 to 10 µM | 0.0001 to 10 µM | CCn1cc(Nc2ncc(-c3ccc(CC(=O)Nc4cnc(C)c(C(F)(F)F)c4)cc3)cn2)cn1 [Compound P-0254, 2-[4-[2-[(1-ethylpyrazol-4-yl)amino]pyrimidin-5-yl]phenyl]-N-[6-methyl-5-(trifluoromethyl)-3-pyridyl]acetamide] |
| 0.0001 to 10 µM | 0.0001 to 10 µM | Cc1ncc(NC(=O)Cc2ccc(-c3cnc(Nc4cnn(C)c4C)nc3)cc2)cc1C(F)(F)F [Compound P-0229, 2-[4-[2-[(1,5-dimethylpyrazol-4-yl)amino]pyrimidin-5-yl]phenyl]-N-[6-methyl-5-(trifluoromethyl)-3-pyridyl]acetamide] |
| 0.0001 to 10 µM | 0.0001 to 10 µM | O=C(Cc1ccc(-c2cnc(Nc3cnn(C4CC4)c3)nc2)cc1F)Nc1ccc(C(F)(F)F)nc1 [Compound P-0242, 2-[4-[2-[(1-cyclopropylpyrazol-4-yl)amino]pyrimidin-5-yl]-2-fluoro-phenyl]-N-[6-(trifluoromethyl)-3-pyridyl]acetamide] |
| 0.0001 to 10 µM | 0.0001 to 10 µM | COc1ncc(NC(=O)Cc2ccc(-c3cnc4[nH]nc(C5CC5)c4c3)cc2)cc1C(F)(F)F [Compound P-0263, 2-[4-(3-cyclopropyl-1H-pyrazolo[3,4-b]pyridin-5-yl)phenyl]-N-[6-methoxy-5-(trifluoromethyl)-3-pyridyl]acetamide] |
| 0.0001 to 10 µM | 0.0001 to 10 µM | O=C(Cc1ccc(-c2cnc(Nc3cnn(C4CC4)c3)nc2)cc1)Nc1ccc(C(F)(F)F)cn1 [Compound P-0236, 2-[4-[2-[(1-cyclopropylpyrazol-4-yl)amino]pyrimidin-5-yl]phenyl]-N-[5-(trifluoromethyl)-2-pyridyl]acetamide] |
| 0.0001 to 10 µM | 0.0001 to 10 µM | COCCn1cc(Nc2ncc(-c3ccc(CC(=O)Nc4cnc(OC)c(C(F)(F)F)c4)cc3)cn2)cn1 [Compound P-0271, 2-[4-[2-[[1-(2-methoxyethyl)pyrazol-4-yl]amino]pyrimidin-5-yl]phenyl]-N-[6-methoxy-5-(trifluoromethyl)-3-pyridyl]acetamide] |
| 0.0001 to 10 µM | 0.0001 to 10 µM | O=C(Cc1ccc(-c2cnc(Nc3cnn(C4CC4)c3)nc2)cc1)Nc1ccc(C(F)(F)F)nc1 [Compound P-0235, 2-[4-[2-[(1-cyclopropylpyrazol-4-yl)amino]pyrimidin-5-yl]phenyl]-N-[6-(trifluoromethyl)-3-pyridyl]acetamide] |
| 0.0001 to 10 µM | 0.0001 to 10 µM | CCn1cc(Nc2ncc(-c3cc(F)c(CC(=O)Nc4cnc(C)c(C(F)(F)F)c4)cc3F)cn2)cn1 [Compound P-0249, 2-[4-[2-[(1-ethylpyrazol-4-yl)amino]pyrimidin-5-yl]-2,5-difluoro-phenyl]-N-[6-methyl-5-(trifluoromethyl)-3-pyridyl]acetamide] |
| 0.0001 to 10 µM | 0.0001 to 10 µM | O=C(Cc1ccc(-c2cnc(Nc3cnn(C4CC4)c3)nc2)cc1)Nc1cnc(Cl)c(C(F)(F)F)c1 [Compound P-0233, N-[6-chloro-5-(trifluoromethyl)-3-pyridyl]-2-[4-[2-[(1-cyclopropylpyrazol-4-yl)amino]pyrimidin-5-yl]phenyl]acetamide] |
